Test results reported in patent publication US8530522B2, “Organic compounds” (Novartis AG, priority 2008, dated 2013).
Structures can show the parent of a compound that is named as a salt.

Columns and labels:
[1] = Water sorption/desorption isotherms (Dynamic Vapor System DVS-1); type: physicochemical
Method: Sorption/desorption isotherms were measured using the Dynamic Vapor System (DVS-1). Measurement was carried out at 25° C. and 40° C.

[2] = Storage of Form I samples at elevated temperature and 75% r.h.; type: physicochemical

Row | relative humidity of first water uptake, water sorption isotherm ([1]; isotherm recorded at 25° C.) [% r.h.] | relative humidity of first significant water uptake, water sorption isotherm ([1]; isotherm recorded at 40° C.) [% r.h.] | solid form after storage ([2]; stored 1 month at 60° C. and 75% r.h.) | solid form after storage ([2]; stored 1 month at 80° C. and 75% r.h.) | SMILES
1 | 90 | 80 | – | – | CCCCCCCCc1ccc(CCC(N)(CO)CO)cc1 [FTY720 HCl, 2-amino-2-[2-(4-octylphenyl)ethyl]propane-1,3-diol hydrochloride salt]
2 | – | – | conversion to the hydrate form | conversion to the hydrate form | CCCCCCCCc1ccc(CCC(N)(CO)CO)cc1 [Form I]
